Results from patent US11007179B2, “Opioid receptor modulator dosage formulations” (Allergan Holdings Unlimited Company, priority 2013, dated 2021).

Experiments:
stressed subjects = experiment: gastrointestinal motility in stressed subjects, oral administration; type: in vivo
rats = experiment: visceral hyperalgesia in rats, oral administration; type: in vivo
[1] = system: stressed and non-stressed mice; conditions: cited from earlier work

| Compound | gastrointestinal (GI) motility (stressed subjects) | anti-visceral hyperalgesic effects (rats) | dose range of the effect [1] | gastrointestinal transit and fecal output [1] |
| --- | --- | --- | --- | --- |
| COc1ccc(CN(C(=O)C(N)Cc2c(C)cc(C(N)=O)cc2C)C(C)c2nc(-c3ccccc3)c[nH]2)cc1C(=O)O (stereo not shown) [active ingredient] | efficacious in normalizing gastrointestinal (GI) motility | providing anti-visceral hyperalgesic effects | – | – |
| CN(C)C(=O)C(CCN1CCC(O)(c2ccc(Cl)cc2)CC1)(c1ccccc1)c1ccccc1 [loperamide] | – | – | narrow dose range | completely prevented fecal output |
